From US6248905A, “Acyl derivatives of glycosyl-L-ascorbic acid” (priority 1998, dated 2001)

Key:
[1] = physchem; conditions: phosphate buffer, pH 7
Experimental: To the solution was added 9.8 ml of 100 mM phosphate buffered aqueous solution (pH 7.0), and the aqueous solution was sterilized, and then incubated at 37° C. or 60° C. while the aqueous solution was sampled at prescribed times, followed by freezing the samples instantly at -30° C. for storing. Thereafter, the aqueous solution stored by freezing was thawed, analyzed on HPLC, and determined for the remaining content of the acyl derivatives based on the absorbance at a wavelength of 254 nm.

[2] = tested on: guinea pigs with scorbutus; test: Anti-scorbutus test; format: in vivo, male Hurtley's guinea pigs; conditions: for days needed to recover maximum body weight before initiating the administration: oral, 56.80 μmol/head/shot once every morning
Experimental: In accordance with the method as reported in Journal of Pharmacobio-Dynamics, Vol. 13, pp. 688-695 (1990) by the present inventors, male Hurtley's guinea pigs, 4-week-old, were bred under free intake of water and vitamin C-defective food, commercialized by Oriental Yeast Co., Ltd., Tokyo, Japan, while the guinea pigs were weighed every morning at a prescribed time as an index of the symptom of anti-scorbutus disease. […] In parallel, one group as a control, in which guinea pigs were administered with only a fresh preparation of the same water free of the specimens, was provided and treated similarly as in the groups with the specimens.

[3] = Radical-entrapping ability (DPPH oxidation-inhibitory activity); format: biochemical; conditions: for EC50: DPPH, ambient temperature, 20 min, read-out: EC50 (50% oxidation-inhibitory-concentration); for Oxidation inhibitory effect (%): sample concentration 10^-4 M
Experimental: In parallel, as a control, a system using a 60 v/v % aqueous ethanol solution was provided in place of the test samples, and treated similarly as in the case of the acyl derivatives. The percentage (%) of the absorbance of the test samples to that of the control was regarded as an oxidation-inhibitory activity, and the activity was used as an index of radical-entrapping ability. The 50% oxidation-inhibitory-concentration (EC50) was calculated based on a logarithmic value of a concentration of the test sample used and on an oxidation-inhibitory ability shown by the sample at the concentration.

[4] = tested on: artificial skin (TESTSKIN, human-skin-restructuring-model); test: Skin permeation test using TESTSKIN; conditions: 10 mM, 37° C., peak levels
[5] = Dynamic test, intravenous administration to rats (blood level); format: in vivo, Male Wister/ST rats
Experimental: Male Wister/ST rats, 12-14-week-old, were fasted for 16 hours and, under an anesthetic, 200-μl blood was taken from their hearts using a syringe injected with a physiological saline containing 600 units/ml heparin. […] Just after the administration and after a prescribed period of time from the administration, blood was taken from the rats similarly as above at a prescribed time interval, and the blood taken was admixed with an adequate amount of heparin and instantly centrifuged at 4° C. to collect supernatants.

O=C1O[C@H]([C@@H](O)CO)C(O)=C1O[C@H]1O[C@H](CO)[C@@H](O)[C@H](O)[C@H]1O [AA 2G, 2-O-α-D-Monoglucopyranosyl-L-ascorbic acid]
degraded at 48 h [1]: 3.9%
degraded at 336 h [1]: 1.6%
internal bleeding caused by scorbutus ([2]; anatomic finding): no such an observation
blood level of alkaline phosphatase ([2]; blood): recovered almost to the normal level
level of L-ascorbic acid in the blood ([2]; blood, numeral data excluded): recovered nearly to a normal level
level of L-ascorbic acid in the liver ([2]; liver, numeral data excluded): recovered nearly to a normal level
days needed to recover maximum body weight before initiating the administration [2]: eight
EC50 [3]: 90.3 µM
Oxidation inhibitory effect (%) [3]: 55.4%

O=C1O[C@H]([C@@H](O)CO)C(O)=C1O [AsA, L-Ascorbic acid]
degraded at 12 h [1]: 75.9%
degraded at 72 h [1]: 68.3%
EC50 [3]: 46.4 µM
Oxidation inhibitory effect (%) [3]: 93.7%

CCCC(=O)OC[C@H](O)[C@H]1OC(=O)C(O[C@H]2O[C@H](CO)[C@@H](O)[C@H](O)[C@H]2O)=C1O [Example 6-Buty-AA-2G, 6-O-butyryl-2-O-α-D-monoglucopyranosyl-L-ascorbic acid]
EC50 [3]: 99.8 µM
Oxidation inhibitory effect (%) [3]: 50.1%

CCCCCCCCCC(=O)OC[C@H](O)[C@H]1OC(=O)C(O[C@H]2O[C@H](CO)[C@@H](O)[C@H](O)[C@H]2O)=C1O [Example 6-Deca-AA-2G, 6-O-decanoyl-2-O-α-D-monoglucopyranosyl-L-ascorbic acid]
EC50 [3]: 73 µM
Oxidation inhibitory effect (%) [3]: 67.5%

CCCCCCCCCCCC(=O)OC[C@H](O)[C@H]1OC(=O)C(O[C@H]2O[C@H](CO)[C@@H](O)[C@H](O)[C@H]2O)=C1O [Example 6-Dode-AA-2G, 6-O-dodecanoyl-2-O-α-D-monoglucopyranosyl-L-ascorbic acid]
skin permeability (peak level) relative to L-ascorbic acid [4]: 7 times
EC50 [3]: 63.2 µM
Oxidation inhibitory effect (%) [3]: 78.3%

CCCCCC(=O)OC[C@H](O)[C@H]1OC(=O)C(O[C@H]2O[C@H](CO)[C@@H](O)[C@H](O)[C@H]2O)=C1O [Example 6-Hexa-AA-2G, 2-O-α-D-monoglucopyranosyl-6-O-hexanoyl-L-ascorbic acid]
EC50 [3]: 91 µM
Oxidation inhibitory effect (%) [3]: 55.1%

CCCCCCCC(=O)OC[C@H](O)[C@H]1OC(=O)C(O[C@H]2O[C@H](CO)[C@@H](O)[C@H](O)[C@H]2O)=C1O [Example 6-Octa-AA-2G, 2-O-α-D-monoglucopyranosyl-6-O-octanoyl-L-ascorbic acid]
days needed to recover maximum body weight before initiating the administration [2]: six
EC50 [3]: 82.7 µM
Oxidation inhibitory effect (%) [3]: 60.4%
blood level of 2-O-α-D-monoglucopyranosyl-L-ascorbic acid after its maximum, when administered with 6-Octa-AA-2G ([5]; metabolite, after maximum): undetectable level
concentration at 0.25 h ([5]; rat, blood, 15 min after administration, read-out: blood level of 6-Octa-AA-2G): 38.2 µM
concentration at 2 min ([5]; rat, blood, two minutes after administration, read-out: blood level of 6-Octa-AA-2G): 525 µM
blood level of L-ascorbic acid compared with 2-O-α-D-monoglucopyranosyl-L-ascorbic acid ([5]; throughout experiment): exceeded
